For one experiment, the target named is Cannabinoid receptor 2 (Mus musculus, UniProt P47936). In words: Compound was evaluated for its binding affinity for mouse spleen Cannabinoid receptor 2.
The target in a further experiment is Cannabinoid receptor 1 (Rattus norvegicus, UniProt P20272). The experiment in a line: Displacement of [3H]CP-55940 from Cannabinoid receptor 1 of rat forebrain membranes. It counts as cell membranes, Membrane.

Some results are limits rather than exact numbers.

Cannabinoid receptor 1, sequence (P20272 whole entry): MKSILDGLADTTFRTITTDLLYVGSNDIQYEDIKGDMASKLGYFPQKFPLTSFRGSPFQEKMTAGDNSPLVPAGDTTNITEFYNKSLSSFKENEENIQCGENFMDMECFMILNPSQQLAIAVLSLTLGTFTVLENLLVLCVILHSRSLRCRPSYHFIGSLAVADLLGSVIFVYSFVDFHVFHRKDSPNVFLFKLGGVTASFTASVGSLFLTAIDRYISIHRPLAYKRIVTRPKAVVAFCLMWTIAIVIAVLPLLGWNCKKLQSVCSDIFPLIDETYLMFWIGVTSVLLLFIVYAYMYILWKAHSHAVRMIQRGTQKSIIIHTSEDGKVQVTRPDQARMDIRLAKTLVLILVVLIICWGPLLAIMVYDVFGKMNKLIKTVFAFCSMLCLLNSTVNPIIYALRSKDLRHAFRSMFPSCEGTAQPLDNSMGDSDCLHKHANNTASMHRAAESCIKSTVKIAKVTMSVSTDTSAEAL
Cannabinoid receptor 2, sequence (P47936 whole entry): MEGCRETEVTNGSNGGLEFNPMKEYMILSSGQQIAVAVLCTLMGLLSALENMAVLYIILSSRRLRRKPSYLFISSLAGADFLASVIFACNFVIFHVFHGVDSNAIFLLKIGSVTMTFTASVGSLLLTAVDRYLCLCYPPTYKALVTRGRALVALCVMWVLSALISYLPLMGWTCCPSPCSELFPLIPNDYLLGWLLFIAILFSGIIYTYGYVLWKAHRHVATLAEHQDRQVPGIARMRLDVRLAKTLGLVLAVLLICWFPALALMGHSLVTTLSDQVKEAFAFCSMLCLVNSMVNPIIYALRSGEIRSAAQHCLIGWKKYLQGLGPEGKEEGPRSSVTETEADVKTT

Consider `CCCCC/C=C\C/C=C\C/C=C\C/C=C\CCCC(=O)Nc1ccccc1O`, for which the Ki at Cannabinoid receptor 2 worked out at 2.1 µM; on Cannabinoid receptor 1 it was 1.66 µM.

Compound `CCCCC/C=C\C/C=C\C/C=C\C/C=C\CCCC(=O)N[C@H]1CCCC[C@@H]1O` returned a Ki on Cannabinoid receptor 1 greater than 3 µM.

`CCCCC/C=C\C/C=C\C/C=C\C/C=C\CCCC(=O)NC(CO)CO`: the Ki on Cannabinoid receptor 1 is 0.363 µM. This counts as sub-micromolar.

On to `CCCCC/C=C\C/C=C\C/C=C\C/C=C\CCCC(=O)Nc1cccc(O)c1`, for which the values for the Ki at Cannabinoid receptor 2 and on Cannabinoid receptor 1 were 3.1 µM and 1.56 µM, respectively.

As to `CCCCC/C=C\C/C=C\C/C=C\C/C=C\CCCC(=S)NCCO`, the Ki on Cannabinoid receptor 2 turned out to be 6.3 µM; at Cannabinoid receptor 1, 1.38 µM.

The compound `CCCCC/C=C\C/C=C\C/C=C\C/C=C\CCCC(=O)NCC(O)CC` (stereo not given) registered a Ki at Cannabinoid receptor 1 of 0.203 µM.

Take `CCCCC/C=C\C/C=C\C/C=C\C/C=C\CCCC(=O)Nc1ccc(O)cc1`: the Ki at Cannabinoid receptor 2 came to 13 µM; at Cannabinoid receptor 1, 1.76 µM.

`CCCCC/C=C\C/C=C\C/C=C\C/C=C\CCCC(=O)NCc1ccc(O)cc1`: the Ki on Cannabinoid receptor 2 came to 11 µM; on Cannabinoid receptor 1, 0.217 µM.

At Cannabinoid receptor 2, `CCCCC/C=C\C/C=C\C/C=C\C/C=C\CCCC(=O)NCCO` [ANANDAMIDE] displayed a Ki of 1.93 µM.

For `CCCCC/C=C\C/C=C\C/C=C\C/C=C\CCCC(=O)N[C@H](C)CO` [METHANANDAMIDE], at Cannabinoid receptor 2, the Ki was 0.815 µM.

The record behind these values is ChEMBL document CHEMBL1129747, “Head group analogs of arachidonylethanolamide, the endogenous cannabinoid ligand” (J Med Chem, 1996).
